Several values for one entry are separate records, joined by “and”; a condition that tells them apart may be missing. Equal values may be shown once.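 A five-concentration, 48-hour dose response in 96-well plates underlies each endpoint, interpolated linearly between surrounding concentrations. The concentration for 50% growth inhibition is given as GI50. TGI: total growth inhibition.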 Activity calls are given as the source filed them. Cut-off read from the data, not from the text of the source: active = GI50 below about 0.43 µM; inactive = the rest.
Tests used:
Assay in all cases: inhibition of tumour cell growth, NCI panel, 48 h
SN12C renal = tested on: SN12C renal
HCT-15 colon = tested on: HCT-15 colon
IGROV1 ovarian = tested on: IGROV1 ovarian
SK-MEL-2 melanoma = tested on: SK-MEL-2 melanoma
CCRF-CEM leukemia = tested on: CCRF-CEM leukemia
U251 CNS = tested on: U251 CNS
786-0 renal = tested on: 786-0 renal
KM20L2 colon = tested on: KM20L2 colon
BT-549 breast = tested on: BT-549 breast

SMILES | TGI (SN12C renal) | TGI (HCT-15 colon) | TGI (IGROV1 ovarian) | TGI (SK-MEL-2 melanoma) | TGI (CCRF-CEM leukemia) | TGI (U251 CNS) | TGI (786-0 renal) | TGI (KM20L2 colon) | TGI (BT-549 breast) | GI50 (SN12C renal) | GI50 (HCT-15 colon) | GI50 (IGROV1 ovarian) | GI50 (SK-MEL-2 melanoma) | GI50 (CCRF-CEM leukemia) | GI50 (U251 CNS) | GI50 (786-0 renal) | GI50 (KM20L2 colon) | outcome (KM20L2 colon)
O=C(C(=O)c1ccc(Cc2ccc(C(=O)C(=O)c3ccccc3)cc2)cc1)c1ccccc1 | > 100 µM | > 100 µM | > 100 µM | > 100 µM | > 100 µM | > 100 µM | > 100 µM | > 100 µM |  |  |  |  |  |  |  |  |  | 
N#CC(C#N)SCc1ccccc1 | > 100 µM | > 92 µM | > 100 µM | 93 µM | > 87 µM | 56.6 µM | > 100 µM | 63.4 µM |  |  |  |  |  |  |  |  |  | 
Nc1nc2c(ncn2Cc2ccccc2CCO)c(=O)[nH]1 | > 100 µM | > 100 µM | > 100 µM | > 100 µM | > 100 µM | > 100 µM | > 100 µM | > 100 µM |  |  |  |  |  |  |  |  |  | 
CSc1nc2c(c(O)c(C)c(=O)n2C2OC(COC(C)=O)C(OC(C)=O)C(OC(C)=O)C2OC(C)=O)c(=O)n1C (configuration not stated) | > 100 µM | > 100 µM | > 100 µM | > 100 µM | > 100 µM | > 100 µM | > 100 µM | > 100 µM |  |  |  |  |  |  |  |  |  | 
COC(=O)c1ccc2c(c1)C(NC(C)=O)CCc1cc(OC)c(OC)c(OC)c1-2 (configuration not stated) | > 96.1 µM | > 44.3 µM | > 41.1 µM | 6.58 µM | > 35.6 µM | 16.5 µM | 93.3 µM | < 0.01 µM | 78.3 µM |  |  |  |  |  |  |  |  | 
CC1(C)C(=O)C(O)=CC2C1=CCC1C2(C)C(=O)CC2(C)C(C(C)(O)C(=O)CC(O)C(C)(C)O)C(O)CC12C (configuration not stated) | > 90.4 µM | > 88.7 µM | 7.1 µM | 6.12 µM | 12 µM | 7.58 µM | 5.65 µM | 42.4 µM |  |  |  |  |  |  |  |  |  | 
CC(C)N(C(C)C)[PH+]1O[PH+](N(C(C)C)C(C)C)O[PH+](N(C(C)C)C(C)C)O[PH+](N(C(C)C)C(C)C)O[PH+](N(C(C)C)C(C)C)O1.[C-]#[O+].[C-]#[O+].[C-]#[O+].[C-]#[O+].[C-]#[O+].[C-]#[O+].[C-]#[O+].[Cr].[Cr] (configuration not stated) | > 100 µM | > 100 µM | > 100 µM | > 100 µM | > 100 µM | > 100 µM | > 100 µM | > 100 µM |  | > 100 µM | > 100 µM | > 100 µM | > 100 µM | > 100 µM | > 100 µM | > 100 µM | > 100 µM | 
Cc1c(C)c2cc3c(=O)ccoc3c(C)c2oc1=O | > 100 µM | > 100 µM | > 100 µM | > 100 µM | > 100 µM | > 100 µM | > 100 µM | > 100 µM |  |  |  |  |  |  |  |  |  | 
O=C(CCc1nc(=S)[nH][nH]1)NC12CC3CC(CC(C3)C1)C2 | > 100 µM | > 100 µM | > 100 µM | > 100 µM | > 100 µM | > 100 µM | > 100 µM | > 100 µM |  |  |  |  |  |  |  |  |  | 
CC(C)c1cccc(C(C)C)c1NC(=O)C(=O)C(C(=O)c1ccccc1-c1ccccc1)C1OC(=O)c2ccccc21 (configuration not stated) | 49.9 µM | 44.5 µM | 74.7 µM | 32.1 µM | 68.5 µM | 25.4 µM | 36.8 µM | 50.8 µM |  |  |  |  |  |  |  |  |  | 
COC1/C=C/OC2(C)Oc3c(C)c(O)c4c(c3C2=O)C(=O)C=C(NC(=O)/C(C)=C\C=C\C(C)C(OC=O)C(C)C(O)C(C)C(OC(C)=O)C1C)C4=O (configuration not stated) | 29.5 µM | 22.7 µM | 34.7 µM | 36.6 µM | 6.4 µM | 38.2 µM | 20.8 µM | 35.2 µM | 24 µM |  |  |  |  |  |  |  |  | 
Clc1ccc([O][In]([O]c2ccc(Cl)cn2)[O]c2ccc(Cl)cn2)nc1 | > 100 µM | > 100 µM | > 100 µM | > 100 µM | > 100 µM | > 100 µM | > 100 µM | > 100 µM |  | > 100 µM | > 100 µM | > 100 µM | > 100 µM | > 100 µM | > 100 µM | > 100 µM | > 100 µM | 
CSc1ccc(/C=C2\CNC/C(=C\c3ccc(SC)cc3)C2=O)cc1 | > 371 µM and 150 µg/mL | > 371 µM and 150 µg/mL | > 162 µM and 110 µg/mL | > 371 µM and 150 µg/mL | > 371 µM and 78.8 µg/mL | 83.7 µM and 65.4 µg/mL | 153 µM |  | > 371 µM | 150 µg/mL | 112 µg/mL | 26.3 µg/mL | 150 µg/mL | 29.1 µg/mL | 34.8 µM and 21.7 µg/mL |  |  | inactive
COC(=O)c1nc(NN)[nH]c(=O)c1CCCCCc1c(C(=O)OC)[nH]c(NN)cc1=O | > 100 µM | > 100 µM | > 100 µM | > 100 µM | > 100 µM | > 100 µM | > 100 µM | > 100 µM |  |  |  |  |  |  |  |  |  | 

From PubChem BioAssay (NCI)
